Our source for the Ki values is patent publication US7045636B2, “MCH antagonists for the treatment of obesity” (Schering Corporation, priority 2001, dated 2006).

For one test, the target named is T1, MCH receptor (Homo sapiens, UniProt Q99705).
T1 construct: expressed in transfected cells; host or cells: CHO cells
T1 sequence (Q99705 whole entry): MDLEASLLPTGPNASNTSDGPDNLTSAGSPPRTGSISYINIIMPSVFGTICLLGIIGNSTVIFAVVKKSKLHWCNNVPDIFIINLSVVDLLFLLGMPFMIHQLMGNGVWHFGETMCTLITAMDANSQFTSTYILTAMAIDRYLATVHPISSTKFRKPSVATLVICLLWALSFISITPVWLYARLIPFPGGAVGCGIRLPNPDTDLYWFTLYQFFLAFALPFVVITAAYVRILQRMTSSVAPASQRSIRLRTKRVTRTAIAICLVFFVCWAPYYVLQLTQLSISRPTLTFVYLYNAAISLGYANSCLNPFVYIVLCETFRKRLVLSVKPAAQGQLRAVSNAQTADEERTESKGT
The experiment in a line: MCH Receptor Binding Assay. The conditions noted are these: Table 1; membranes from CHO cells expressing the MCH receptor, [125I]-MCH, SPA; read-out: MCH Ki (nm). The procedure:
MCH Receptor Binding Assay:
Membranes from CHO cells expressing the MCH receptor were prepared by lysing cells with 5 mM HEPES for 15 min at 4C. Cell lysates were centrifuged ([…], 15 min) and the pellet was re-suspended in 5 mM HEPES. For each 96-well plate (Microlite, Dynex Technologies), 1 mg of cell membranes were incubated with 10 mg of wheat germ agglutinin SPA beads (Amersham) for 5 min at 4 C in a volume of 10 ml of binding buffer (25 mM HEPES, 10 mM MGCl2, 10 mM NaCl, 5 mM MnCl2, 0.1% BSA). The membrane/bead mixture was centrifuged (1500×g, 3.5 min), the supernatant was aspirated, and the pellet was re-suspended in 10 ml binding buffer. The centrifugation, aspiration and re-suspension were then repeated. The membrane/bead mixture (100 μl) was then added to 96-well plates containing 50 μl of 500 pM [^125I]-MCH (NEN) and […] of the appropriate concentration of compound (4× the desired final concentration). Nonspecific binding was determined by including 1 μM MCH in the binding reaction. The binding reaction was incubated at room temperature for 2 h. Plates were then analyzed in a TOPCOUNT microplate scintillation counter (Packard). Data was analyzed and Ki values were determined using GraphPad Prim.
Take `N#Cc1cccc(-c2ccc(CN(CC(=O)Nc3cc(Cl)cc(Cl)c3)C(=O)NCCN3CCCC3)cc2)c1` [Example 13]: the Ki (as a rule, a measure of affinity in units of concentration, obtained from inhibition or displacement) turned out to be 13 nM.
As to `N#Cc1cccc(-c2ccc(CN(CC(=O)Nc3ccc(F)c(C(F)(F)F)c3)C(=O)CN3CCCC3)cc2)c1` [Example 29], the Ki worked out at 72 nM.
As for `N#Cc1cccc(-c2ccc(CN(CC(=O)Nc3cc(Cl)cc(Cl)c3)C(=O)CN3CCCC3)cc2)c1` [Example 21], the Ki worked out at 35 nM.
For `N#Cc1cccc(-c2ccc(CCN(CC(=O)Nc3cc(Cl)cc(Cl)c3)C(=O)CCN3CC[C@H](O)C3)cc2)c1` [Example 6], the Ki amounted to 7.2 nM.
Take `CC(C(=O)Nc1cc(Cl)cc(Cl)c1)N(Cc1ccc(-c2cccc(C#N)c2)cc1)C(=O)CCN1CC[C@H](O)C1` (stereo partly drawn) [Example 26]: the inhibition constant (Ki) worked out at 56 nM.
Still for that read-out and setting: as for `N#Cc1cccc(-c2ccc(CCN(CC(=O)Nc3ccc(Cl)c(C(F)(F)F)c3)C(=O)CN3CCCC3)cc2)c1` [Example 17], the figure is 25 nM; as for `N#Cc1cccc(-c2ccc(CN(CC(=O)Nc3cc(Cl)cc(Cl)c3)C(=O)C3CN(C4CCCC4)C3)cc2)c1` [Example 24], 40 nM.
Regarding `CC(=O)N[C@@H]1CCN(CC(=O)N(CCc2ccc(-c3cccc(C#N)c3)cc2)CC(=O)Nc2cc(Cl)cc(Cl)c2)C1` [Example 31], the Ki was found to be 82 nM.
`CN(C)CC(=O)N(CC(=O)Nc1cc(Cl)cc(Cl)c1)c1ccc(-c2cccc(C#N)c2)cc1` [Example 25]: the Ki is 52 nM.
In the case of `N#Cc1cccc(-c2ccc(CCN(CC(=O)Nc3ccc(Cl)c(C(F)(F)F)c3)C(=O)CN3CC[C@@H](O)C3)cc2)c1` [Example 10], the Ki turned out to be 11 nM.
For the compound `CCCNCCC(=O)N(CCc1ccc(-c2cccc(C#N)c2)cc1)CC(=O)Nc1cc(Cl)cc(Cl)c1` [Example 16], the Ki came out at 24 nM.
Turning to `N#Cc1cccc(-c2ccc(CN(CC(=O)Nc3cc(Cl)cc(Cl)c3)C(=O)CN3CC[C@H](O)C3)cc2)c1` [Example 18], the Ki came out at 27 nM.
Consider `N#Cc1cccc(-c2ccc(CCN(CC(=O)Nc3cc(Cl)cc(Cl)c3)C(=O)CN3CCCC3)cc2)c1` [Example 15], for which the Ki amounted to 19 nM.
In the case of `N#Cc1cccc(-c2ccc(CCN(CC(=O)Nc3cc(Cl)cc(Cl)c3)C(=O)CN3CCCCC3)cc2)c1` [Example 7], the Ki was 9.3 nM.
On the same count and under the same terms, as for `CC(C(=O)Nc1cc(Cl)cc(Cl)c1)N(Cc1ccc(-c2cccc(C#N)c2)cc1)C(=O)CCN1CCCC1` (stereo not drawn) [Example 30], the figure is 73 nM.
Consider `CC(C(=O)Nc1cc(Cl)cc(Cl)c1)N(CCc1ccc(-c2cccc(C#N)c2)cc1)C(=O)CN1CCCCC1` (stereo not drawn) [Example 37], for which the Ki is 9 nM.
As to `CN(C)CC(=O)N(CCc1ccc(-c2cccc(C#N)c2)cc1)CC(=O)Nc1cc(Cl)cc(Cl)c1` [Example 32], the Ki was determined as 90 nM.
For the compound `N#Cc1cccc(-c2ccc(CCN(CC(=O)Nc3cc(F)cc(C(F)(F)F)c3)C(=O)CN3CCCC3)cc2)c1` [Example 11], the Ki turned out to be 11.7 nM.
On the same count and under the same terms, the value for `N#Cc1cccc(-c2ccc(CN(CC(=O)Nc3cc(Cl)cc(Cl)c3)C(=O)CN3CC[C@@H](O)C3)cc2)c1` [Example 27] was 61 nM; that for `N#Cc1cccc(-c2ccc(CCN(CC(=O)Nc3cc(Cl)cc(Cl)c3)C(=O)CCN3CCCC3)cc2)c1` [Example 9] was 10 nM.
On the same count and under the same terms, the value for `N#Cc1cccc(-c2ccc(CCN(CC(=O)Nc3ccc(F)c(Cl)c3)C(=O)CN3CC[C@@H](O)C3)cc2)c1` [Example 3] was 3.7 nM.
In the case of `CN(C)CC(=O)N(CC(=O)Nc1cc(Cl)cc(Cl)c1)Cc1ccc(-c2cccc(C#N)c2)cc1` [Example 22], the Ki was 36 nM.
As for `CC(C(=O)Nc1cc(Cl)cc(Cl)c1)N(CCc1ccc(-c2cccc(C#N)c2)cc1)C(=O)CN1CC[C@H](O)C1` (stereo partly drawn) [Example 36], the Ki was determined as 8 nM.
As to `N#Cc1cccc(-c2ccc(CCN(CC(=O)Nc3cc(Cl)cc(Cl)c3)C(=O)CCN3CCC3)cc2)c1` [Example 20], the Ki was 32 nM.
Same read-out and setting: the value for `N#Cc1cccc(-c2ccc(CCN(CC(=O)Nc3ccc(F)c(Cl)c3)C(=O)CN3CCCC3)cc2)c1` [Example 4] was 5.3 nM.
For the compound `CN1CCN(CC(=O)N(CCc2ccc(-c3cccc(C#N)c3)cc2)CC(=O)Nc2cc(Cl)cc(Cl)c2)CC1` [Example 28], the Ki amounted to 63 nM.
On the same count and under the same terms, as for `N#Cc1cccc(-c2ccc(CCN(CC(=O)Nc3cc(F)cc(C(F)(F)F)c3)C(=O)CN3CC[C@@H](O)C3)cc2)c1` [Example 5], the figure is 6.7 nM.
For the compound `N#Cc1cccc(-c2ccc(CCN(CC(=O)Nc3ccc(F)c(C(F)(F)F)c3)C(=O)CN3CCCC3)cc2)c1` [Example 19], the Ki came out at 28 nM.
On to `N#Cc1cccc(-c2ccc(CCN(CC(=O)Nc3cc(Cl)cc(Cl)c3)C(=O)CCN3CC[C@@H](O)C3)cc2)c1` [Example 12], for which the Ki was determined as 12 nM.

The test is the same for the next values; noted with them: Table 2; membranes from CHO cells expressing the MCH receptor, [125I]-MCH, SPA; read-out: Ki (MCH).
In the case of `C[C@@H](c1ccc(-c2cccc(C#N)c2)cc1)N(CC(=O)Nc1cc(Cl)cc(Cl)c1)C(=O)CCN(C)C` [Example 51], the Ki amounted to 45 nM.
Regarding `C[C@@H](c1ccc(-c2cccc(C#N)c2)cc1)N(CC(=O)Nc1cc(Cl)cc(Cl)c1)C(=O)CCNC1CCCC1` [Example 52], the Ki came out at 67 nM.
Regarding `C[C@@H](c1ccc(-c2cccc(C#N)c2)cc1)N(CC(=O)Nc1cc(Cl)cc(Cl)c1)C(=O)CCNC1CCC1` [Example 48], the Ki was found to be 28 nM.
As to `C[C@H](c1ccc(-c2cccc(C#N)c2)cc1)N(CC(=O)Nc1cc(Cl)cc(Cl)c1)C(=O)CCN1CC[C@@H](O)C1` [Example 47], the Ki amounted to 23 nM.
As for `C[C@@H](c1ccc(-c2cccc(C#N)c2)cc1)N(CC(=O)Nc1cc(Cl)cc(Cl)c1)C(=O)CCNCC1CC1` [Example 46], the Ki turned out to be 22 nM.
Consider `C[C@H](c1ccc(-c2cccc(C#N)c2)cc1)N(CC(=O)Nc1cc(Cl)cc(Cl)c1)C(=O)CN1CC[C@@H](O)C1` [Example 49], for which the Ki was 31 nM.
Take `CC(c1ccc(-c2cccc(C#N)c2)cc1)N(CC(=O)Nc1cc(Cl)cc(Cl)c1)C(=O)CCN1CC[C@@H](O)C1` (stereo partly drawn) [Example 41]: the Ki was 12 nM.
On to `CCCNCCC(=O)N(CC(=O)Nc1cc(Cl)cc(Cl)c1)[C@@H](C)c1ccc(-c2cccc(C#N)c2)cc1` [Example 45], for which the Ki came to 22 nM.
Regarding `CC(c1ccc(-c2cccc(C#N)c2)cc1)N(CC(=O)Nc1cc(Cl)cc(Cl)c1)C(=O)CN1CC[C@H](O)C1` (stereo partly drawn) [Example 42], the Ki was 16 nM.
The same measure, in the same setting: as for `CNCCC(=O)N(CC(=O)Nc1cc(Cl)cc(Cl)c1)[C@@H](C)c1ccc(-c2cccc(C#N)c2)cc1` [Example 53], the figure is 78 nM; as for `C[C@@H](c1ccc(-c2cccc(C#N)c2)cc1)N(CC(=O)Nc1cc(Cl)cc(Cl)c1)C(=O)CCN1CC[C@@H](O)C1` [Example 43], 18 nM; as for `C[C@@H](c1ccc(-c2cccc(C#N)c2)cc1)N(CC(=O)Nc1cc(Cl)cc(Cl)c1)C(=O)CCN1CCCCC1` [Example 44], 18 nM.
Still for that read-out and setting: as for `CC(C)CNCCC(=O)N(CC(=O)Nc1cc(Cl)cc(Cl)c1)[C@@H](C)c1ccc(-c2cccc(C#N)c2)cc1` [Example 50], the figure is 34 nM.

Still in this test, the particulars now being: printed unit nM; read-out: MCH Ki.
Regarding `N#Cc1cccc(-c2ccc(CC(=O)N(CCCN3CCCC3)CC(=O)Nc3cc(Cl)cc(Cl)c3)cc2)c1` [Example 61], the Ki came out at 62 nM.

Still in this test, the particulars now being: text of the example; printed unit nm; read-out: MCH Ki.
Regarding `N#Cc1cccc(-c2ccc(CN(CC(=O)Nc3cc(Cl)cc(Cl)c3)C(=O)CCN3CCCC3)cc2)c1` [Example 1], the Ki was 21 nM.
On the same count and under the same terms, the value for `CC(c1ccc(-c2cccc(C#N)c2)cc1)N(CC(=O)Nc1cc(Cl)cc(Cl)c1)C(=O)CN1CCCC1` (stereo not drawn) [Example 40] was 21 nM.
